Experimental data as given in patent US8735152B2, “Methods for inducing cell death in pluripotent stem cells and differentiated cells other than cardiac myocytes” (Daiichi Sankyo Company, Limited, priority 2009, dated 2014).

Experiments:
[1] = system: human induced pluripotent stem cells (iPS cells); experiment: Cell death inducing effect on human induced pluripotent stem cells (TMRM, FACS); format: cell-based; settings: 0.45 M, 2 hours
Description: The human iPS cells were obtained from Stem Cell Research Center, Institute for Frontier Medical Sciences, Kyoto University (ES cell center sponsored by the National Bio-Resource Project). The cells were cultured basically in accordance with the same method as that in the case of human embryonic stem cells, i.e., in accordance with the same method as described in Example 5. After passaging, the cells were dispersed with each other using TE (0.25% trypsin (GIBCO) and 1 mM EDTA) and in accordance with a published document (Watanabe, K. et al., Nat. Biotechnol., 2007, 25: 681-686, Epub 2007 May 27), 10 μM of a ROCK inhibitor (Y27632) was added to suppress cell death. At the same time, the mitochondria in the live cells were stained with 50 nM TMRM. […] In the control, cells were aggregated with each other to make masses, so before FACS analysis, both samples were given another treatment with trypsin and EDTA to disperse the cells; thereafter, the samples were analyzed by FACS for the level of mitochondrial membrane potential on the basis of the fluorescent intensity of TMRM to check the state of survival of the stem cells; the results are shown in FIG. 12. […]

[2] = system: human embryonic stem cell-derived embryoid bodies; experiment: Cell death inducing effect on residual stem cells in human embryonic stem cell-derived embryoid bodies and enrichment of cardiomyocytes; format: cell-based; settings: 0.45 M, 2 hours
Description: After passaging, human embryonic stem cells were subjected to suspension culture in a culture medium [α-MEM (minimum essential medium) (SIGMA), supplemented with 10% FBS (EQUITEC BIO), 100 units/ml penicillin, and 50 μg/ml streptomycin (GIBCO)] to induce formation of embryoid bodies. At 14-18 days after the start of differentiation (the start of suspension culture), autonomously pulsating cells started to differentiate, which was confirmed in a separate step that they were cardiomyocytes.
The embryoid bodies still maintained an autonomously pulsating ability after the passage of 3 months from the start of differentiation. They were partially treated with 0.1% collagenase (Wortington) and 0.1% trypsin (DIFCO) to be dispersed as fine cell masses. The cell masses were divided into two groups; one group was treated with 0.45 M mannitol (approximately equivalent to 720 mOsm/kg) for 2 hours, and the other group (control) was not treated with mannitol but treated with the same amount of a solution having the physiological osmotic pressure, Ads buffer (116.4 mM NaCl, 5.4 mM KCl, 5.6 mM dextrose, 10.9 mM NaH2PO4, 405.7 μM MgSO4, 20 mM Hepes, pH 7.3) for 2 hours. After the treatment, both cell groups were subjected to adherent culture for 3 days in a DMEM solution supplemented with 10% fetal calf serum.
The mannitol-treated cells and the control cells were analyzed in accordance with the experimental procedure of Example 1 using a mouse anti-Oct-3/4 monoclonal antibody (No. 084720 of BD Transduction Laboratories) and a goat anti-Nkx 2.5 antibody (No. N-19 of Santacruz) as primary antibodies, for the expression of the Oct-3/4 protein which was both a marker of embryonic stem cells and an intranuclear transcription factor, and for the expression of the Nkx 2.5 protein which was both a cardiomyocyte marker and an intranuclear transcription factor, respectively. The results for the control group, one of the two divided samples, are shown in FIG. 10 and the results for the test group subjected to 2-hr treatment with mannitol are shown in FIG. 11. The upper panels of FIG. 10 show the results of cardiomyocytes and the lower panels show the results of embryonic stem cells.
The embryoid bodies still maintained an autonomously pulsating ability after the passage of 3 months from the start of differentiation. They were partially treated with 0.1% collagenase (Wortington) and 0.1% trypsin (DIFCO) to be dispersed as fine cell masses. The cell masses were divided into two groups; one group was treated with saccharides (sugar alcohols: sorbitol, xylitol, and glycerol; sugars: sucrose and glucose; betaines: trimethylglycine) for 12 hours in an amount of 0.45 M (approximately equivalent to 700-780 mOsm/kg) or 0.6 M (approximately equivalent to 850-1000 mOsm/kg), and the other group (control) was not treated with those saccharides but treated with the same amount of a solution having the physiological osmotic pressure, Ads buffer (116.4 mM NaCl, 5.4 mM KCl, 5.6 mM dextrose, 10.9 mM NaH2PO4, 405.7 μM MgSO4, 20 mM Hepes, pH 7.3) for 2 hours. After the treatment, both cell groups were cultured for 12 hours in a DMEM solution supplemented with 10% fetal calf serum.
Samples of differentiated cells derived from human embryonic stem cells, as treated with 0.45 M glycerol (approximately equivalent to 710 mOsm/kg) or 0.6 M glycerol (approximately equivalent to 870 mOsm/kg), were examined for their morphology under the culture conditions. […] The cell death inducing effect was noticeable when the cells were exposed to glycerol for 10 hours and longer (FIG. 14).

[3] = Saccharide concentration and osmotic pressure of hypertonic solutions (measured values); format: physicochemical
Description: When the hypertonic solution having an osmotic pressure of 370 mOsm/kg or higher is prepared by adding a saccharide to the culture medium, the method of the present invention is characterized in that the hypertonic solution contains the saccharide in 0.1-1 M (mol/L), preferably 0.1-0.6 M (mol/L). The relation between the concentration of saccharide (mol/L) and the osmotic pressure (mOsm/kg) can be approximated by a substantially straight line; a hypertonic solution containing 0.1 M saccharide corresponds to one having an osmotic pressure of approximately 370 mOsm/kg and a hypertonic solution containing 1 M saccharide corresponds to one having an osmotic pressure of approximately 1300-1600 mOsm/kg.
Hypertonic solutions were prepared using various saccharides and the relation between the saccharide concentration and the osmotic pressure is shown in the following table for typical saccharides.

[4] = one week after the treatment, immunohistochemical technique

For OC[C@@H](O)[C@@H](O)[C@H](O)[C@H](O)CO [mannitol], the “Mitochondrial membrane potential (TMRM fluorescence, FACS)” value [1] was “almost all of the cells treated with mannitol for 2 hours had lost membrane potential”, the Toxicity in cardiomyocytes [2] was “does not show significant toxicity in cardiomyocytes” and the Autonomously pulsating cells ([2]; then 3 days adherent culture) was “autonomously pulsating cell populations and autonomously pulsating single cells were found adherent to or suspended in the culture dish”. The “Colonies of cells assumed to be undifferentiated cells” value ([2]; then 3 days adherent culture) was “no such cell populations were found at all”, the “Type of surviving cells (Nkx 2.5)” value [2, 4] was “a great majority of the surviving cells were Nkx 2.5 positive cardiomyocytes” and the “Type of surviving cells (Oct-3/4)” value [2, 4] was “Oct-3/3 negative cells were hardly detectable”. For the same compound, the Osmotic pressure ([3]; saccharide concentration 0.2 M in culture medium) was about 480 mOsm/kg, the Osmotic pressure ([3]; saccharide concentration 0.45 M in culture medium) was about 720 mOsm/kg and the Osmotic pressure ([3]; saccharide concentration 0.45 M in culture medium, listed as Mannitol) was 717 mOsm/kg. The Osmotic pressure ([3]; saccharide concentration 0.6 M in culture medium) was 875 mOsm/kg and the Osmotic pressure ([3]; saccharide concentration 0.9 M in culture medium) was 1234 mOsm/kg.
